Experimental data: publication PMC5035034, “Carbohydrate-Binding Non-Peptidic Pradimicins for the Treatment of Acute Sleeping Sickness in Murine Models” (PLoS Pathogens, 2016)

Molecular target: T1, VSG221 (variant surface glycoprotein 221, MITat 1.2) (Trypanosoma brucei, UniProt P26332)
T1 construct: soluble form VSG (sVSG) purified from parental bloodstream forms, N-glycosylated (Asn263, Asn428)
Experiment: SPR (Biacore T200) on immobilized VSG221, […]
Assay type: binding

Structure (SMILES): CN[C@@H]1[C@H](O[C@@H]2OC[C@@H](O)[C@H](O)[C@H]2O)[C@@H](O)[C@H](O[C@H]2c3cc(C)c(C(=O)N[C@H](C)C(=O)O)c(O)c3-c3c(cc4c(c3O)C(=O)c3cc(OC)cc(O)c3C4=O)[C@@H]2O)O[C@@H]1C [PRM-A, pradimicin A]
- SPR (Biacore T200) on immobilized VSG221, 1.56 to 50 uM: using the high-density parental Tb BSF VSG221 sensorchip, concentration-dependent binding of PRM-A could be observed
